Entries after “also recorded” stand apart in the source; their conditions may differ.
What was measured:
Akt = Akt phosphorylation immunoblot in microglia; type: cell-based, mouse; details: for effect on fibrin-mediated phosphorylation of Akt: microglia on fibrinogen plus peptide; for effect on LPS-mediated phosphorylation of Akt: microglia with LPS plus peptide
Experimental: Immunoblots. Western blots were performed using standard protocols (55). Microglia were serum-starved overnight and plated on fibrinogen or with LPS for 6 hours. Lysates were electrophoresed on 4-12% gradient SDS-PAGE gels and probed with phospho and total Akt antibodies (1:1000, Cell Signaling, Beverly, Mass.). RhoA activation was performed as described (60). Briefly, 2×107 microglia were plated on fibrinogen for 6 hours or with LPS for 10 minutes. Cell lysates were incubated with GST-Rhotekin agarose beads (kindly provided by Dr. Joan Heller Brown, UCSD) for 45 minutes at 4° C. The beads were washed, resuspended in Laemmli sample buffer, and electophoresed on a 15% SDS-PAGE gel. Activated and total Rho were detected with mouse anti-RhoA (1:500, Santa Cruz Biotechnology, Santa Cruz, Calif.). Densitometry was performed using the NIH Scion Image software using three blots from three separate experiments.

blood coagulation = assay: Hematological analyses: plasma clotting time and prothrombin time after intranasal peptide; type: in vivo, mouse; details: 30 μg and 90 μg intranasally daily for seven days
Experimental: Hematological Analyses. Citrated plasma was prepared from mice administered intranasally 30 μg or 90 μg of γ^377-395 peptide or saline control daily for seven days. Plasma clotting times were measured by combining 10 μl of citrated plasma with 10 μl of 2 U/ml bovine thrombin (Enzyme Research Laboratories, South Bend, Ind., USA) and 40 mM. CaCl2 in a weigh boatfloating in a 37° C. water bath. Time to clot was determined by mixing with a toothpick. Plasma thrombin times were established as described previously (15). Fibrin polymerization was evaluated by standard turbidity assays using plasma. Briefly, citrate plasma (diluted tenfold in 20 mM HEPES, pH 7.4, containing 0.15 M NaCl and 5 mM-amino caproic acid) was combined with bovine thrombin (final concentration 0.2 U/ml; Enzyme Research Laboratories, South Bend, Ind., USA), and Ca^2+ (10 mM), and OD350 measurements were taken every 30 seconds.

Mac-1 = Mac-1 (Homo sapiens, UniProt P11215); details: from cited biochemical studies; cited from earlier work

tyr-ser-met-lys-lys-thr-thr-met-lys-ile-ile-pro-phe-asn-arg-leu-thr-ile-gly (YSMKKTTMKIIPFNRLTIG) (listed as Homo sapiens) [γ^377-395 peptide]
effect on fibrin-mediated phosphorylation of Akt (Akt): specifically inhibit
effect on fibrin-mediated phosphorylation of Akt (Akt; listed as γ^377-395): blocks
effect on LPS-mediated phosphorylation of Akt (Akt): not LPS-mediated
effect on LPS-mediated phosphorylation of Akt (Akt; listed as γ^377-395): unaffected
in vivo blood clotting time (blood coagulation): does not affect; also recorded: Neither dose affected
prothrombin time (blood coagulation): does not affect; also recorded: Neither dose affected
blocking of fibrin(ogen) binding to Mac-1 (CD11b) (Mac-1): blocks

From patent publication US8569242B2, “Method of treating degenerative disorders of the nervous system” (The Regents of the University of California, priority 2005, dated 2013)
